Like-named read-outs stand apart in the source and are kept apart here.
Key:
ER = biological target: T1, ER (Homo sapiens, UniProt P03372); assay: co-transfection assay, ER; type: cell-based
T1 construct: expressed in transfected cells; host or cells: background cell substantially devoid of endogenous IRs (CV-1 described for the co-transfection assay)
T1 sequence (P03372 1-595): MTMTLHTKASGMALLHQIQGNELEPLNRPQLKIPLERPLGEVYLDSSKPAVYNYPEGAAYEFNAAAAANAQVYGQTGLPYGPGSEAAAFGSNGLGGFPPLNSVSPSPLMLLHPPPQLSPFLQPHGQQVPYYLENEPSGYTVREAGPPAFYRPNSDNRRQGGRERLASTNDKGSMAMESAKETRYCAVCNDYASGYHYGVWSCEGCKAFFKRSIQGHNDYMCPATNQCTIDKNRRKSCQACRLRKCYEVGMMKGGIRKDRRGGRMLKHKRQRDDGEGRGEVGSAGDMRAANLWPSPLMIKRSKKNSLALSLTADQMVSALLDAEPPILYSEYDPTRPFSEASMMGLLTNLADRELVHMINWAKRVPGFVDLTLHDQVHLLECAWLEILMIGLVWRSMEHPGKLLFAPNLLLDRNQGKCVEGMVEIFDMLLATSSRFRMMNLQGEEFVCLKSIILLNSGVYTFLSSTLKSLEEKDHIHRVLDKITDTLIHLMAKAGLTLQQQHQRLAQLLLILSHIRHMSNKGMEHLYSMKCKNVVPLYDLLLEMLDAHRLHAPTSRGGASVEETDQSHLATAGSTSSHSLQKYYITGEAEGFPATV
Description: (§1) CV-1 cells (African green monkey kidney fibroblasts) were cultured in the presence of Dulbecco's Modified Eagle Medium (DMEM) supplemented with 10% charcoal resin-stripped fetal bovine serum (CH-FBS) then transferred to 96-well microtiter plates one day prior to transfection.
(§2) Three to four replicates were used for each sample.
(§3) After 40 hours, the cells were washed with PBS, lysed with a Triton X-100-based buffer and assayed for LUC and β-Gal activities using a luminometer or spectrophotometer, respectively. For each replicate, the normalized response (NR) was calculated as: LUC response/β-Gal rate • where β-Gal rate=β-Gal/β-Gal incubation time.

human AR = biological target: T2, human AR (Homo sapiens, UniProt P10275); assay: co-transfection assay, hAR in CV-1 cells (MTV-LUC reporter); type: cell-based
T2 construct: expressed in transfected cells; host or cells: CV-1 cells (African green monkey kidney fibroblasts)
T2 sequence (P10275 1-920): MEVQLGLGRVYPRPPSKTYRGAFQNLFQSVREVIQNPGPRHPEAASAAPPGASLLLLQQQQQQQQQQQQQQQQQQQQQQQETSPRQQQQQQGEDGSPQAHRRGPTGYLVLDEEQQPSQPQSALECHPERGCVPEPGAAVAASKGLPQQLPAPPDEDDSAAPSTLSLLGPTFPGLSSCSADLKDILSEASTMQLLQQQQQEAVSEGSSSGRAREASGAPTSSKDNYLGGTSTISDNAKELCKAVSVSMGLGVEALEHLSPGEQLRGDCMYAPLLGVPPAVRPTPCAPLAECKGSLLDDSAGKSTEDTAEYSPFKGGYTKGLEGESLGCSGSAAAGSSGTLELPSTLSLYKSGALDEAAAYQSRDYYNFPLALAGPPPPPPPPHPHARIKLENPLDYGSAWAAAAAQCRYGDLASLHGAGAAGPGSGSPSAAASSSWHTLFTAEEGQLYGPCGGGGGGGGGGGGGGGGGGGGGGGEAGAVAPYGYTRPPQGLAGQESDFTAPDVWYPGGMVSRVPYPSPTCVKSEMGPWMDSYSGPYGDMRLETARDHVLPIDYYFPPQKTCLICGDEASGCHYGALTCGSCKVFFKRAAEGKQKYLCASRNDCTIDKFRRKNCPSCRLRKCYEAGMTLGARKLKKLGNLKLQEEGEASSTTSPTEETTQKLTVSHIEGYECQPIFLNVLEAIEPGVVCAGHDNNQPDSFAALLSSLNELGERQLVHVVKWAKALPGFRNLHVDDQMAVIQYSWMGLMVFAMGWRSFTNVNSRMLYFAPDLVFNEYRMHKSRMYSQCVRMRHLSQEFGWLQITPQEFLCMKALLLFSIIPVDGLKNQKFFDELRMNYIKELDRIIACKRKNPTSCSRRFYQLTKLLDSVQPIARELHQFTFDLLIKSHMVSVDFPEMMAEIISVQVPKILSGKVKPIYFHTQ
Description: The co-transfection assay provides a method for identifying functional agonists and partial agonists that mimic, or antagonists that inhibit, the effect of native hormones and quantifying their activity for responsive IR proteins. In this regard, the co-transfection assay mimics an in vivo system in the laboratory. Importantly, activity in the co-transfection assay correlates very well with known in vivo activity, such that the co-transfection assay functions as a qualitative and quantitative predictor of a tested compounds in vivo pharmacology. , See e.g., T. Berger et al. 41 J. Steroid Biochem. Molec.
as §1
The reporter plasmid, MTV-LUC, contains the cDNA for firefly luciferase (LUC) under control of the mouse mammary tumor virus (MTV) long terminal repeat, a conditional promoter containing an androgen response element. See e.g., Berger et al. supra. In addition, pRS-β-Gal, coding for constitutive expression of E. coli β-galactosidase (β-Gal), was included as an internal control for evaluation of transfection efficiency and compound toxicity.
as §2, §3

[1] = agonist mode, luciferase production relative to DHT, hAR in CV-1 cells
[2] = antagonist mode, maximal inhibition of DHT-induced luciferase production, hAR in CV-1 cells
[3] = read-out: AR-wt Potency Antag, antagonist mode, Table 2

| Compound | EC50 (ER) | IC50 (ER) | EC50 (human AR) | AR Agonist CV-1 Cells Efficacy (human AR; [1]) | AR Antagonist CV-1 Cells Efficacy (human AR; [2]) | IC50 (human AR; [3]) | AR Agonist CV-1 Cells Efficacy (human AR) | AR Antagonist CV-1 Cells Efficacy (human AR) | IC50 (human AR) | IC50 (human AR; read-out: AR-wt Potency Antag) |
| --- | --- | --- | --- | --- | --- | --- | --- | --- | --- | --- |
| C=CCN1c2ccc3[nH]c(=O)cc(C(F)(F)F)c3c2OC[C@H]1CC [Compound 114, (3R)-4-Allyl-3-ethyl-2,3,4,7-tetrahydro-10-(trifluoromethyl)-8H-[1,4]oxazino[2,3-f]quinolin-8-one] | > 10 µM | > 10 µM | 0.053 µM | 74% | na (not active (i.e. efficacy of <20 and potency of >10,000 nM for the cotransfection assay) | > 10 µM |  |  |  |  |
| CC[C@@H]1COc2c(ccc3[nH]c(=O)cc(C(F)(F)F)c23)N1CC(F)(F)F [Compound 110, (3R)-3-Ethyl-2,3,4,7-tetrahydro-4-(2,2,2-trifluoroethyl)-10-(trifluoromethyl)-8H-[1,4]oxazino[2,3-f]quinolin-8-one] | > 10 µM | > 10 µM | 0.0006 µM |  |  |  | 89% | na (key: na: not active (i.e. efficacy of <20 and potency of >10,000 nM for the cotransfection assay) | > 10 µM | > 10 µM |
| CC(C)[C@@H]1COc2c(ccc3[nH]c(=O)cc(C(F)(F)F)c23)N1CC(F)(F)Cl [Compound 124, (3R)-4-(2-Chloro-2,2-difluoroethyl)-2,3,4,7-tetrahydro-3-isopropyl-10-(trifluoromethyl)-8H-[1,4]oxazino[2,3-f]quinolin-8-one] | > 10 µM | > 10 µM | 0.002 µM | 70% | na (not active (i.e. efficacy of <20 and potency of >10,000 nM for the cotransfection assay) | > 10 µM |  |  |  |  |

Source: patent publication US7214690B2, “Tricyclic quinolinone and tricyclic quinoline androgen receptor modulator compounds and methods” (Ligand Pharmaceuticals Incorporated, priority 2001, dated 2007)
